Data as given in US20130189255A1, “FUSIONS AND CONJUGATES OF INSULINOTROPIC AGENTS” (GLAXO GROUP LIMITED, priority 2008, published 2013).
Values joined by “and” are separate entries in the source; they are usually repeats but may differ in a detail not shown here. Equal entries are not always repeated. Where two headings read alike, the source gives them in different places. Marks after values point to notes of the source that are not given here.

Columns and labels:
human GLP-1 receptor = molecular target: T1, human GLP-1 receptor (Homo sapiens, UniProt P43220); test: GLP-1 receptor binding assay (GLP-1R BA), CHO 6CRE GLP1R luciferase reporter cells; format: cell-based
T1 construct: expressed in transfected cells; host or cells: CHO K1 (CHO 6CRE GLP1R)
T1 sequence (P43220 24-463): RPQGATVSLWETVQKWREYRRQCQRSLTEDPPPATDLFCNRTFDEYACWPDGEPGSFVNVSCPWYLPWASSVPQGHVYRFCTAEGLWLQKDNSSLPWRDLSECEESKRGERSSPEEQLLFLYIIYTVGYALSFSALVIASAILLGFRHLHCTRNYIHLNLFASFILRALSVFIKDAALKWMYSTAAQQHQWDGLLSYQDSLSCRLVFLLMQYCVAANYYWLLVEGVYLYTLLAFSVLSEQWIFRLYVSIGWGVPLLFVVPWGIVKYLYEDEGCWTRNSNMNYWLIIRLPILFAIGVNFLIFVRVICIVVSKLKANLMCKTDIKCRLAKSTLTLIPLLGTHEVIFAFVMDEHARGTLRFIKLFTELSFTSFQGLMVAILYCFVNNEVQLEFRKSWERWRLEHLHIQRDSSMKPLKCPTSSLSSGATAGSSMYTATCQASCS
Protocol: Fusions were buffer exchanged into 100 mM […], 20 mM citrate pH 6.2. […] Suspension culture was maintained for 24 hours. Cells were then diluted into 15 mM HEPES buffer (obtainable from Sigma), containing 2 mM L glutamine (2.5×10^5 cells/ml) and dispensed into 384-well plates containing 10 ul/well of the compound to be assayed. After the addition of assay control, plates were returned to the incubator for 3 h at 37° C. and 5% CO2. After the incubation, steady glo luciferase substrate (obtainable from Promega) was added to the wells as described in the kit and the plates sealed with self-adhesive plate seals (Weber Marking Systems Inc. Cat. No. 607780). Plates were placed in the reader (Viewlux, Perkin Elmer) and pre-incubated for 5 minutes prior to reading the […] and plotting of results. Compound was assayed at a range of concentrations in the presence and absence of 10 uM albumin, allowing a dose response curve to be fitted with and without the albumin.

db/db mice = test: Oral glucose tolerance test (OGTT) in db/db mouse model of type II diabetes; format: in vivo
From the text: Animals were sorted by decreasing glucose levels three days prior to the start of the experiment and then blocked. One animal within each block was then assigned to each of the 26 study groups. This ensured similar mean starting glucose level in each of the study groups.

[1] = system: diet induced obese (DIO) mice; test: Diet induced obese (DIO) mouse model of obesity; format: in vivo; settings: 0.01, 0.1, 1 mg/Kg sc, 10 days, compared to DOM7h-14 control
Protocol: This may be predictive for humans. Male C57B1/6 mice (purchased from Taconic) were fattened on 60% kcal high fat irradiated diet for 12 wks and then transferred to the in-house facility. Upon arrival, the mice were individually housed on alpha-dri bedding in a temperature and humidity controlled room (70-72° F., Humidity=48-50%, 5 AM/5 PM light cycle). The diet was changed to 45% high fat diet and the animals acclimated for 18 days. Prior to administration of test compound, mice were injected subcutaneously with saline once daily for three days and food consumption monitored. Mice were blocked and grouped such that body weight and food consumption were not different between or within groups.
Daily food consumption and body weight were measured daily for 10 days. […] It was therefore concluded that the data from this mouse study supports the hypothesis that DAT0115 would be a good clinical candidate.

cynomolgus monkey = test: PD in cynomolgus monkey: biscuit consumption; format: in vivo, cynomolgus monkey (Macaca fascicularis)
From the text: Protein was extensively QCed (including SDS-PAGE, mass spec, activity assay:GLP-1R-BA, pH check, osmolarity check), filter sterilised and endotoxin removed. Protein with confimed low endotoxin (<0.05 EU/mg protein) was then used for the in vivo study. Six female cynomolgus monkeys (Macaca fascicularis; Charles River Laboratories BRF, Houston, Tex., Primate Products, Miami, Fla. and/or Covance Research Products, Inc., Alice, Tex.) were used in this study. The monkeys were approximately 2 to 9 years old (with a body weight range of approximately 2 to 5 kilograms) at initiation of dosing. The monkeys were housed individually in stainless-steel cages in an environmentally controlled room(s) (64 F to 84 F; 30 to 70% relative humidity) with a 12-hour light/dark cycle. The female monkeys were offered approximately 6 biscuits twice daily of Monkey Diet #5038 (PMI Nutrition International, Richmond, Ind.) and a daily allotment of fresh fruit. […] Dose was at 0.1 mg/Kg. On the days of dosing, the first feeding occurred within approximately 1 hour post dose for each monkey (extended up to 2.5 hours post dose if study-related procedures required animals to be out of their local housing for an extended period of time). The second feeding was no sooner then two hours following the first feeding. For the purpose of environmental enrichment, additional fruit, legume and/or vegetable (e.g., grapes, baby carrots, peanuts) was provided to each monkey at or around the time of viability check or as a method of reward after acclimation or study-related procedures. Filtered tap water (supplied by Aqua Pennsylvania, Inc. and periodically analyzed) was available ad libitum. Plasma samples (approx 2 ml) were collected from the femoral vessel at predose (0 hour) and nominally at 5 minutes (iv group only), 0.5, 4, 8, 24, 48, 96, 144, 192, 288, 336, 504 and 672 hours after dosing. (PK samples from one of the animals in the iv dose group were only collected to 24 h so this animal has been excluded from the PK fitting). Analysis of samples was by mass spectrometry, and fitting of the data was using WinNonLin fitting software. PK parameters were as follows for iv administration (n=2): T1/2 67 h, MRT 46 h, Vz 327 ml/Kg and Cl 3.3 ml/hr/Kg; and for sc administration (n=3): T1/2 68 h, MRT 98 h, Vz 306 ml/Kg and Cl 3.1 ml/hr/Kg. Bioavailability was calculated as 99%. A PK study was conducted in cynomolgus monkey as described above. The principal aim of this study was to determine the pharmacokinetic parameters for DAT0115 in cynomolgus monkey (as described in the previous example), but a secondary aim was to obtain an indication of the efficacy of the DAT0115 compound in the monkeys (without sufficient power in the study for statistical significance). To achieve this secondary aim, biscuit consumption by the monkeys was monitored during the course of the study.

## Exendin 4 (G4S linker)3 DOM7h-14 dAb fusion [DAT0115]
Human GLP-1 receptor; read-out: GLP-1R BA (10 uM albumin) EC50 (pM) n = 2, presence of 10 uM albumin
  EC50: 35 pM
Human GLP-1 receptor; read-out: GLP-1R BA EC50 (pM) n = 3, absence of albumin
  EC50: 8.9 pM
db/db mice; 0.1 mg/Kg and 0.3 mg/Kg doses sc
  timepoints out to which glucose AUC was significantly decreased compared to vehicle: ≤ 24 h
db/db mice; 0.1 mg/kg sc, OGTT +5 hrs relative to dosing
  percentage reduction in glucose AUC compared to vehicle: 60%*
db/db mice; 0.1 mg/kg sc, OGTT +24 hrs
  percentage reduction in glucose AUC compared to vehicle: 36%*
db/db mice; 0.1 mg/kg sc, OGTT +48 hrs
  percentage reduction in glucose AUC compared to vehicle: 28%
db/db mice; 0.1 mg/kg sc, OGTT +72 hrs
  percentage reduction in glucose AUC compared to vehicle: 16%
db/db mice; 0.1 mg/kg sc, OGTT +96 hrs
  percentage reduction in glucose AUC compared to vehicle: −12%
db/db mice; 0.3 mg/kg sc, OGTT +24 hrs
  percentage reduction in glucose AUC compared to vehicle: 59%*
db/db mice; 0.3 mg/kg sc, OGTT +48 hrs
  percentage reduction in glucose AUC compared to vehicle: 26%
db/db mice; 0.3 mg/kg sc, OGTT +72 hrs
  percentage reduction in glucose AUC compared to vehicle: 26%
db/db mice; 1 mg/Kg dose sc
  timepoints out to which glucose AUC was significantly decreased compared to vehicle: ≤ 72 h
db/db mice; 1 mg/kg sc, OGTT +5 hrs
  percentage reduction in glucose AUC compared to vehicle: 76%*
db/db mice; 1 mg/kg sc, OGTT +24 hrs
  percentage reduction in glucose AUC compared to vehicle: 50%*
db/db mice; 1 mg/kg sc, OGTT +48 hrs
  percentage reduction in glucose AUC compared to vehicle: 37%*
db/db mice; 1 mg/kg sc, OGTT +72 hrs
  percentage reduction in glucose AUC compared to vehicle: 41%*
db/db mice; 1 mg/kg sc, OGTT +96 hrs
  percentage reduction in glucose AUC compared to vehicle: 12%
[1]
  body weight: dose dependent reduction
  food consumption: dose dependent reduction
Cynomolgus monkey; 0.1 mg/Kg (iv), Day 1 (dosing day), individual monkey
  Biscuits consumed daily: 0 (2×) and 6
Cynomolgus monkey; 0.1 mg/Kg (iv), Day 2, individual monkey
  Biscuits consumed daily: 0 and 3 and 1
Cynomolgus monkey; 0.1 mg/Kg (iv), Day 3, individual monkey
  Biscuits consumed daily: 0 (2×) and 9
Cynomolgus monkey; 0.1 mg/Kg (iv), Day 4, individual monkey
  Biscuits consumed daily: 0 and 12 and 4
Cynomolgus monkey; 0.1 mg/Kg (iv), Day 5, individual monkey
  Biscuits consumed daily: 1 and 12 and 6
Cynomolgus monkey; 0.1 mg/Kg (iv), Day 6, individual monkey
  Biscuits consumed daily: 6 and 12 and 10
Cynomolgus monkey; 0.1 mg/Kg (iv), Day 7, individual monkey
  Biscuits consumed daily: 6 and 12 and 11
Cynomolgus monkey; 0.1 mg/Kg (iv), Day −1 (pre-dose), individual monkey
  Biscuits consumed daily: 12
Cynomolgus monkey; 0.1 mg/Kg (iv), Day −2 (pre-dose), individual monkey
  Biscuits consumed daily: 12
Cynomolgus monkey; 0.1 mg/Kg (sc), Day 1 (dosing day), individual monkey
  Biscuits consumed daily: 5 and 12 and 11
Cynomolgus monkey; 0.1 mg/Kg (sc), Day 2, individual monkey
  Biscuits consumed daily: 0 (2×) and 12
Cynomolgus monkey; 0.1 mg/Kg (sc), Day 3, individual monkey
  Biscuits consumed daily: 4 and 2 and 11
Cynomolgus monkey; 0.1 mg/Kg (sc), Day 4, individual monkey
  Biscuits consumed daily: 11 and 12 (2×)
Cynomolgus monkey; 0.1 mg/Kg (sc), Day 5, individual monkey
  Biscuits consumed daily: 7 and 12 and 8
Cynomolgus monkey; 0.1 mg/Kg (sc), Day 6, individual monkey
  Biscuits consumed daily: 11 and 12 (2×)
Cynomolgus monkey; 0.1 mg/Kg (sc), Day 7, individual monkey
  Biscuits consumed daily: 12
Cynomolgus monkey; 0.1 mg/Kg (sc), Day −1 (pre-dose), individual monkey
  Biscuits consumed daily: 12
Cynomolgus monkey; 0.1 mg/Kg (sc), Day −2 (pre-dose), individual monkey
  Biscuits consumed daily: 12
Cynomolgus monkey; 0.1 mg/Kg iv or sc, all monkeys, not powered for significance
  food consumption in the days following dosing: trend towards reduction in food consumption
